{
  "source": "patent US9394328B2",
  "about": "“Crystalline dapagliflozin hydrate” (SANDOZ AG, priority 2011, dated 2016)",
  "experimental": "The measurements were carried out with a Bruker D8 Advance powder X-ray diffractometer using Cu Kα radiation in the Bragg-Brentano reflection geometry. Generally, the 2θ values are accurate within an error of ±0.1-0.2°. The relative peak intensities can vary considerably for different samples of the same crystalline form because of different preferred orientations of the crystals. The samples were prepared without any special treatment other than the application of slight pressure to get a flat surface. Silicon single crystal sample holders of either 0.5 mm or 0.1 mm depth and 12 mm cavity diameter were used. The tube voltage and current were 40 kV and 40 mA, respectively. The X-ray diffractometer is equipped with a LynxEye detector. A variable divergence slight was used with a 3° window. The step size was 0.02° 20 with a step time of 37 seconds. The samples were rotated at 0.5 rps during the measurement.\nThermogravimetry coupled with Fourier Transform Infrared Spectroscopy (TG-FTIR): TG-FTIR was performed on a Netzsch Thermo-Microbalance TG 209, which is coupled to a Bruker FT-IR Spectrometer Vector 22. The measurements were carried out with aluminum crucibles with a micro pinhole under a nitrogen atmosphere and at a heating rate of 10° C./min over the range 25-250° C.\n145 mg of crystalline hydrate form A according to example 4 is stored under a relative humidity of 60% (in an open container) for two weeks. Then the stored sample is investigated by PXRD and TG-FTIR.",
  "data": [
    {"smiles": "CCOc1ccc(Cc2cc([C@@H]3O[C@H](CO)[C@@H](O)[C@H](O)[C@H]3O)ccc2Cl)cc1", "note": "[form A, dapagliflozin]", "values": [
      {"measurement": "TG-FTIR mass loss attributable to loss of water", "setting": "after storage at relative humidity of 60% for two weeks", "value": "about 9%"},
      {"measurement": "Water content in equilibrium with a water activity of about 0.6", "setting": "concluded from TG-FTIR mass loss", "value": "about 2 mol water per mol dapagliflozin"},
      {"measurement": "Crystalline form after storage (PXRD)", "setting": "stored under a relative humidity of 60% (open container) for two weeks", "value": "form A is retained"}
    ]}
  ]
}
